The text below walks through data of patent US6413974B1, “6,9,-disubstituted 2-[trans-(4-aminocyclohexyl) amino] purines” (Aventis Pharmaceuticals Inc., priority 1998, dated 2002).

Values joined by “and” are separate entries in the source; they are usually repeats but may differ in a detail not shown here. Identical values can stand only once. Counter-ions that a name gives are not always drawn. Like-named read-outs stand apart in the source and are kept apart here.

One assay deals with proliferating PC12 cells. The following applies: cited from earlier work.
In the next assay the test system is DMS-114. The experiment in a line: In vitro tumor cell proliferation, DMS-114. It is filed as cell-based, human. The following applies: read-out: In vitro Tumor Cell Proliferation (IC50, μM) Lung DMS-114. The method, boiled down:
(§1)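 Cells seeded overnight at 37° C, then exposed to drug 3 days, medium and drug renewed, plus 4 more days; TCA-fixed and sulforhodamine B stained. Alternatively CyQUANT read-out after 3 days' drug exposure, plates frozen at −80° C.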

In another assay the test system is A549. The assay can be described thus: In vitro tumor cell proliferation, A549. It is filed as cell-based, human. The following applies: read-out: In vitro Tumor Cell Proliferation (IC50, μM) Lung A549. In outline: as §1
The subject of assay [1] is PC12 cells, or rat sympathetic neurons. Conditions: cited from earlier work.
Another assay has as its system PC-3. The assay can be described thus: In vitro tumor cell proliferation, PC-3. It is filed as cell-based, human. The following applies: read-out: In vitro Tumor Cell Proliferation (IC50, μM) Prostate PC-3. In outline:
as §1

In the next assay the test system is HCT-15. The experiment in a line: In vitro tumor cell proliferation, HCT-15. The following applies: read-out: In vitro Tumor Cell Proliferation (IC50, μM) Colon HCT-15. It is filed as cell-based, human. The method, boiled down: as §1
Another assay deals with DU 145. The assay can be described thus: In vitro tumor cell proliferation, DU 145. It is filed as cell-based, human. The following applies: read-out: In vitro Tumor Cell Proliferation (IC50, μM) Prostate DUI45. The method, boiled down:
as §1

Assay [2] relates to neuronal PC12 cells and sympathetic neurons. Conditions: cited from earlier work.
A further assay concerns MCF-7. The assay can be described thus: In vitro tumor cell proliferation, MCF-7. It is filed as cell-based, human. The following applies: read-out: In vitro Tumor Cell Proliferation (IC50, μM) Breast MCF-7. How it is done:
The proliferation of tumor cells was measured using a sulforhodamine B assay as described in Skehan, P., et al., J. Natl. Cancer Inst. […] Tumor cells were harvested with trypsin-EDTA, cells that excluded trypan blue were counted, added to 96-well plates and incubated overnight at 37° C. Drug was added to the wells following dilution in culture medium. Three days later, the medium was removed and replenished with medium containing fresh drug and incubated an additional 4 days. The cells were then fixed with 0.1 ml 10% trichloroacetic acid for 60 min at 4° C. The plates were rinsed five times with tap water, air-dried and stained for 30 min with 0.4% sulforhodamine B in 1% acetic acid and air-dried.
Alternatively, the CyQUANT cell proliferation assay was used to quantify tumor cell proliferation. Tumor cells were harvested with trypsin-EDTA, cells that excluded trypan blue were counted, added to 96-well plates and incubated overnight at 37° C. Drug was added to the wells following dilution in culture medium. Three days later the medium was removed and the plates frozen at −80° C. for at least 30 minutes.
MCF7 is a human breast adenocarcinoma, hormone-dependent (HTB 22);

Another assay deals with cortical neurons. The following applies: cited from earlier work.
A further assay deals with MDA-MB-231. The experiment in a line: In vitro tumor cell proliferation, MDA-MB-231. It is filed as cell-based, human. The following applies: read-out: In vitro Tumor Cell Proliferation (IC50, μM) Breast MDA-MB-231. The method, boiled down:
as §1

For the next assay, the target named is T1, cdk2/cyclin E (Homo sapiens, UniProt P24941).
T1 construct: made in house; host or cells: insect cells (baculovirus co-infection)
The experiment in a line: Cyclin-Dependent Kinase 2 Assay (cdk-2 inhibition). The following applies: GST-Rb substrate, 30 min at 30° C. Format: biochemical. The method, boiled down:
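GST-Rb bound to glutathione-Sepharose beads (0.5 μg/well) as substrate in 50 mM HEPES pH 7.5, 10 mM MgCl2, 1 mM EGTA. Recombinant cdk2/cyclin E at 0.1 μg per 100 μl, 30 min at 30 °C. Reaction stopped by filtration, TNEN washes, scintillation counting.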

In a further assay the test system is HT-29. The assay can be described thus: In vitro tumor cell proliferation, HT-29. Format: cell-based, human. Conditions: read-out: In vitro Tumor Cell Proliferation (IC50, μM) Colon HT-29 (converted). In outline:
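HT-29 human colon adenocarcinoma cells plated overnight at 37° C., then exposed to drug for 3 days, medium with fresh drug replaced for a further 4 days. Cells fixed with 10% TCA and stained with 0.4% sulforhodamine B; alternatively, CyQUANT read after 3 days of drug exposure.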

The next assay has as its target T2, cdk4/cyclin D1 (Homo sapiens, UniProt P11802).
T2 construct: made in house; host or cells: Sf9 insect cells (Bac-to-Bac baculovirus, pFastBac)
The assay can be described thus: Cyclin-dependent kinase 4 Assay. The following applies: cdk4/cyclin D1, GST-Rb substrate, 10 μM ATP, 30 min at 37° C.; read-out: CDK4 Inhibition IC50. It is filed as biochemical. The method, boiled down:
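Insect-cell lysate of coexpressed human cdk4/cyclin D1 (0.1 μg) phosphorylated bead-bound GST-Rb (0.5 μg) in 50 mM HEPES pH 7.5, 10 mM MgCl2, 1 mM EGTA for 30 min at 37 °C. Filters were washed with TNEN and scintillation-counted; IC50 values derived.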

For assay [3], the system named is p34^cdc2-cyclin B kinases. Conditions: Havlicek et al. 1997; cited from earlier work.
[4] abbreviates: Homo sapiens, DMS-114, values without *.
[5] abbreviates: Homo sapiens, A549, values without *.
The mark [6] stands for this setting: Homo sapiens, PC-3, values without *.
[7] abbreviates: Homo sapiens, HCT-15, values without *.
[8] abbreviates: Homo sapiens, DU-145, values without *.
Setting [9] is: Homo sapiens, MCF7, values without *.
[10] abbreviates: Homo sapiens, MDA-MB-231, values without *.
Where [11] appears, read: Homo sapiens, HT-29, values without *.
[12] abbreviates: values without *, dihydrochloride.

T2 sequence (P11802 whole entry): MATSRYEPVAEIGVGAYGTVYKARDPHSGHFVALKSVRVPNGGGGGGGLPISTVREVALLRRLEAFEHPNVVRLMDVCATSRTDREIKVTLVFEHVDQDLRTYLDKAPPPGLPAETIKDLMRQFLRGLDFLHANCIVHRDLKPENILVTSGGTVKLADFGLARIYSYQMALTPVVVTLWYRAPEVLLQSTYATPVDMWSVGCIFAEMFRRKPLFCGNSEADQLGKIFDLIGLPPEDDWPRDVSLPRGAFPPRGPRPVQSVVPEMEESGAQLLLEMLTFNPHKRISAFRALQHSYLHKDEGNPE
T2 sequence (P24385 whole entry partner): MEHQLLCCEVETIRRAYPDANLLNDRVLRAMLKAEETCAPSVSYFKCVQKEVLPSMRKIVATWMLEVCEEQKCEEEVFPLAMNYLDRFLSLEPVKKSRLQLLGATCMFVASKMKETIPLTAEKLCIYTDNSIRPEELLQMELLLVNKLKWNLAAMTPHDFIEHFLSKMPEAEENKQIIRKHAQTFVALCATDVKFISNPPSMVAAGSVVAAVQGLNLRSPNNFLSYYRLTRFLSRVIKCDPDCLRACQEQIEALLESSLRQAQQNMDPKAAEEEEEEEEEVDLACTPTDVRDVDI

Take `CN1CC[C@H](c2c(O)cc(O)c3c(=O)cc(-c4ccccc4Cl)oc23)[C@H](O)C1` [Flavoipiridol, reference compound]: the “minimum concentration that fully inhibits DNA synthesis” value in the assay on proliferating PC12 cells was 1 µM. The IC50 in the assay on DMS-114 (setting [4]) came out at 0.08 µM; in the assay on A549 (setting [5]), 0.08 µM; with PC-3 (setting [6]), 0.07 µM; in the assay with HCT-15 (setting [7]), 0.1 µM; in the assay with DU 145 (setting [8]), 0.08 µM; in the assay with MCF-7 (setting [9]) it was 0.06 µM. Besides, the IC50 is 100 nM with cortical neurons (Park et al. 1997, read-out: IC50, protection against camptothecin-induced cortical neuronal death) and 0.095 µM in the assay with MDA-MB-231 (setting [10]). In addition, the “cell death at day 6” value in assay [1] (both or individual olomoucine or flavopiridol, in the presence or absence of camptothecin) was “approximately 30%”. Further, the “concentration giving maximal protection from death” value in [1] (camptothecin-treated PC12 cells or rat sympathetic neurons) is 1 µM. Besides, the “apoptosis of post-mitotic differentiated or sympathetic neurons” value in assay [2] (following withdrawal of NGF) is recorded as “prevented apoptosis”. In assay [2] (two model systems of neuronal survival, Park et al. 1996), the “death of neuronal PC12 cells and sympathetic neurons” value is given as “suppress the death”.
For the molecule `N[C@H]1CC[C@H](Nc2nc(NCc3ccc(Cl)c(Cl)c3)c3ncn(C4CCCC4)c3n2)CC1` [Example 10, 2-[Trans-(4-aminocyclohexyl)amino]-6-[(3,4-dichlorobenzyl)amino]-9-cyclopentylpurine dihydrochloride], the IC50 against cdk2/cyclin E is 140 nM; with HT-29 (setting [11]), 1.6 µM; in the assay on DMS-114 (setting [4]) it was 1.5 µM; with A549 (setting [5]) it was 1.7 µM; in the assay with A549 (setting [12]), 0.98 µM; in the assay on PC-3 (setting [6]), 0.97 µM. In addition, the IC50 was 0.79 µM in the assay on PC-3 (setting [12]); 1.9 µM with HCT-15 (setting [7]); 0.97 µM in the assay with DU 145 (setting [8]); 1.8 µM with DU 145 (setting [12]); 1.1 µM in the assay with MCF-7 (setting [9]); 1.8 µM with MCF-7 (setting [12]). In addition, the IC50 on cdk4/cyclin D1 was 190 nM and 300 nM; with MDA-MB-231 (setting [10]), 1.2 µM; with MDA-MB-231 (setting [12]), 1.7 µM.
Take `Cn1cnc2nc(NCCO)nc(NCc3ccccc3)c21` [iso-olomoucine]: the “prevention of cell death of camptothecin-treated neuronal cells” value (in assay [1] (PC12 cells / sympathetic neurons); in the assay on cortical neurons (cortical neurons)) was “failed to prevent the cell death” in each case.
`CC[C@@H](CO)Nc1nc(NCc2ccccc2)c2ncn(C(C)C)c2n1` (single isomer, unassigned) [(S) enantiomer]: the IC50 in [3] is 800 nM.
On to `CCCCNc1nc(N[C@H]2CC[C@H](N)CC2)nc2c1ncn2C1CCCC1` [Example 3, 2-[Trans-(4-aminocylcohexyl)amino]-6-(butylamino)-9-cyclopentylpurine dihydrochloride], for which the IC50 at cdk2/cyclin E was 33 nM and 17 nM; with HT-29 (setting [11]), 0.92 µM; in the assay with HT-29 (setting [12]) it was 1.5 µM; in the assay with DMS-114 (setting [4]), 0.49 µM; in the assay with DMS-114 (setting [12]), 0.73 µM; in the assay on A549 (setting [5]) it was 0.6 µM. For the same molecule, the IC50 in the assay with A549 (setting [12]) came to 0.63 µM; with PC-3 (setting [6]), 0.37 µM; with HCT-15 (setting [7]), 3.9 µM; in the assay with HCT-15 (setting [12]), 3.6 µM; in the assay with DU 145 (setting [8]), 0.54 µM; in the assay with DU 145 (setting [12]), 0.6 µM. The IC50 in the assay with MCF-7 (setting [9]) is 0.59 µM; with MCF-7 (setting [12]), 0.81 µM; on cdk4/cyclin D1 it was 390 nM and 660 nM; with MDA-MB-231 (setting [10]), 0.95 µM; in the assay on MDA-MB-231 (setting [12]), 1.2 µM.
For `N[C@H]1CC[C@H](Nc2nc(NCCc3ccccc3)c3ncn(C4CCCC4)c3n2)CC1` [Example 43, 2-[Trans-(4-aminocyclohexyl)amino-6-[2-(phenyl)ethylamino]-9-cyclopentylpurinedihydrochloride], the IC50 was 160 nM at cdk2/cyclin E; 2.2 µM with HT-29 (setting [11]); 2.8 µM with HT-29 (setting [12]); 0.92 µM in the assay on DMS-114 (setting [4]); 1.2 µM in the assay on DMS-114 (setting [12]); 1.1 µM in the assay on A549 (setting [5]). The IC50 in the assay on A549 (setting [12]) stood at 1 µM; in the assay with PC-3 (setting [6]), 0.89 µM; in the assay with PC-3 (setting [12]), 0.92 µM; in the assay with HCT-15 (setting [7]), 3.4 µM; in the assay on HCT-15 (setting [12]) it was 3.2 µM; in the assay with DU 145 (setting [8]), 1.2 µM. Further, the IC50 in the assay with DU 145 (setting [12]) is 1.4 µM; in the assay with MCF-7 (setting [9]), 1.2 µM; with MCF-7 (setting [12]), 1.6 µM; on cdk4/cyclin D1, 250 nM; in the assay on MDA-MB-231 (setting [10]), 2.1 µM; with MDA-MB-231 (setting [12]) it was 2.5 µM.
